Assays:
[1] = data not shown
[2] = data not shown; remark: listed apart in the source
[3] = test system: CCR5-specific virus (HIVBaL); assay: In vitro CCR5 receptor viral infectivity assay (GHOST R5 reporter cells); type: cell-based, HIV; conditions: GFP reporter
Description: This virus uses CCR5 receptor binding to infect its host cell.
In Vitro CCR5 Receptor Viral Infectivity Assay
A CCR5-specific virus (HIVBaL) was added 1 hr later. CCR5 receptor viral infectivity was tested on CCR5-containing cells with a Green Fluorescent Protein (GFP) reporter that responds to viral infection.
The experiment, which was repeated 5 times in various cell systems, was performed in triplicate and bars correspond to standard error of the mean. Data were analyzed by a nonlinear fit using GraphPad Prism 5.

[4] = biological target: CCR5 (Homo sapiens, UniProt P51681); conditions: cited from earlier work
[5] = Nerve damage neuropathic pain, DAPTA pilot study; type: in vivo, rat

Sequence of CCR5 (P51681 whole entry): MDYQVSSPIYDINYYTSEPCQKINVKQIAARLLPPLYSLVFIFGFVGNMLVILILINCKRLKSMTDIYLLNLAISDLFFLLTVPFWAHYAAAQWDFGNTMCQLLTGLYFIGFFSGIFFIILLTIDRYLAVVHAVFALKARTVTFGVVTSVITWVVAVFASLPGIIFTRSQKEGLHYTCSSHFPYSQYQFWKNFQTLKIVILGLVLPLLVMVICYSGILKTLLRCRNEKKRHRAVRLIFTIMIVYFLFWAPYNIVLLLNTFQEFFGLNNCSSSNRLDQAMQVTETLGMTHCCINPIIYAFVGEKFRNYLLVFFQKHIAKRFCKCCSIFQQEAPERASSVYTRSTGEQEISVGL

Row | Compound | paw withdrawal threshold in naïve animals [1] | paw withdrawal latency in naïve animals [2] | block of infection by CCR5 using virus (HIVBaL) [3] | affinity for R5 [4] | neuropathic pain development ([5]; pilot study, 0.01 mg/kg, not shown) | pain in the paw ipsilateral to nerve damage ([5]; rats)
1 | C[C@H](O)[C@@H](N)C(=O)N[C@@H](C(=O)N[C@H](CC(N)=O)C(=O)N[C@H](Cc1ccc(O)cc1)C(=O)N[C@@H](C(=O)O)[C@H](C)O)[C@H](C)O [All D TTNYT] | did not alter | did not alter | – | – | – | –
2 | D-Ala-Peptide T-amide [DAPTA] | – | – | block CCR5 receptors | femtomolar range | inhibited neuropathic pain development | attenuated pain

— US10130674B2, “Modified peptide that reduces pain in peripheral neuropathy” (Creative Bio-Peptides, priority 2010, dated 2018)
